Among the data in US8846656B2, “Tetrahydropyrido-pyridine and tetrahydropyrido-pyrimidine compounds and use thereof as C5a receptor modulators” (Novartis AG, priority 2011, dated 2014) are IC50 values, retold here.

A word on the IC50: it is the concentration needed to halve the response being measured.

human C5aR, sequence (P21730 whole entry): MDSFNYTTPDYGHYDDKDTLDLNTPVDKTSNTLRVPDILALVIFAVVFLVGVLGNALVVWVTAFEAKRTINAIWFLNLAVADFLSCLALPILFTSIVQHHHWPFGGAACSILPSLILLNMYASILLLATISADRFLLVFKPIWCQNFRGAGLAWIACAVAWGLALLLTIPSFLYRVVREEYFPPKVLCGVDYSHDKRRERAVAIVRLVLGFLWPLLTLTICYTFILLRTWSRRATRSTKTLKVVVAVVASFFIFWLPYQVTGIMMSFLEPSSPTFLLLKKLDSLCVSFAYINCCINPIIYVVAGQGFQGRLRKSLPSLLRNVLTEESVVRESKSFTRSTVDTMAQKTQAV

The test has as its target human C5aR (Homo sapiens (Human), UniProt P21730). As to the kind of experiment: FLIPR assay: inhibition of C5a-mediated calcium mobilization. Type of test: cell-based. As to conditions: stable cell line over expressing human C5aR & Gα15, human C5a at EC50 (0.1-0.25 nM). The procedure: Compounds were tested for their ability to inhibit C5a-mediated calcium mobilization using a stable cell line over expressing the human C5aR & the Gα15 protein on the FLIPR (Fluorescent Imaging Plate Reader) Tetra system. Cells were maintained in culture media containing DMEM (Dulbecco's Modified Eagle Medium) with 4.5 g/L glucose, 10% fetal bovine serum, 100 U/mL, 1× non-essential amino acid, and 250 μg/mL G418 (Geneticin). Prior to testing of compounds, cells were plated at 10,000 cells/well in clear bottom 384-well black plate, and incubated overnight at 37° C. with 5% CO2. On the day of experiment, culture media was removed, and replaced with assay buffer HBSS (Hanks' Balanced Salt Solution) with 20 mM HEPES (4-(2-hydroxyethyl)-1-piperazineethanesulfonic acid) and 0.1% BSA (bovine serum albumin) BSA containing calcium 5 dye (Molecular Devices) and 2.5 mM probenecid. After 1 hour incubation at 37° C., 5% CO2 for 60 min, cells were pre-incubated with compounds for 30 minutes at room temperature, in 1% DMSO (dimethyl sulfoxide).
A general note: Calcium flux is commonly read through the fluorescence of an indicator in the cells.
For the compound `CO[C@H]1CCN(c2nc(-c3cccc4[nH]cc(C)c34)nc3c2CN(c2cc(C4CC4)ccc2C)CC3)CC1(C)C` [Example 19-N, (S)-6-(5-cyclopropyl-2-methylphenyl)-4-(4-methoxy-3,3-dimethylpiperidin-1-yl)-2-(3-methyl-1H-indol-4-yl)-5,6,7,8-tetrahydropyrido[4,3-d]pyrimidine], the concentration for half-maximal inhibition (IC50) was determined as 29 nM. With `[2H]C1([2H])c2c(C)cc(-c3c(CC)cccc3CC)nc2CCN1c1c(C)ccnc1C` [Example 44-D, 2-(2,6-Diethylphenyl)-6-(2,4-dimethylpyridin-3-yl)-4-methyl-5,6,7,8-tetrahydro(5,5-^2H2)-1,6-naphthyridine], the IC50 worked out at 131 nM. As for `[2H]C1([2H])c2c(C)cc(-c3c(CC)cccc3CC)nc2CC(C)N1c1cc(C2CC2)nn1C` (centres unmarked) [Example 42-H, 6-(3-cyclopropyl-1-methyl-1H-pyrazol-5-yl)-2-(2,6-diethylphenyl)-4,7-dimethyl-5,6,7,8-tetrahydro(5,5-^2H2)-1,6-naphthyridine], the 50% inhibitory concentration (IC50) was found to be 58 nM. On to `CCn1nc(C)c(N2CCc3nc(-c4c(C)ccc5[nH]ncc45)cc(C)c3C2)c1C` [Example 40-P, 6-(1-ethyl-3,5-dimethyl-1H-pyrazol-4-yl)-4-methyl-2-(5-methyl-1H-indazol-4-yl)-5,6,7,8-tetrahydro-1,6-naphthyridine], for which the IC50 turned out to be 37 nM.

In the case of `Cc1ccc(C(C)C)cc1N1CCc2nc(-c3c(C4CC4)cnc4[nH]ccc34)nc(N3CCCC(C)(C)C3)c2C1` [Example 20-D, 2-(5-Cyclopropyl-1H-pyrrolo[2,3-b]pyridin-4-yl)-4-(3,3-dimethylpiperidin-1-yl)-6-(5-isopropyl-2-methylphenyl)-5,6,7,8-tetrahydropyrido[4,3-d]pyrimidine], the IC50 was 164 nM. As to `Cc1ccc(C)c(-c2nc3c(c(N4CCN(CC(N)=O)C[C@H]4C)n2)CN(c2cc(C(C)C)ccc2C)CC3)c1` [Example 24-C, (R)-2-(4-(2-(2,5-Dimethylphenyl)-6-(5-isopropyl-2-methylphenyl)-5,6,7,8-tetrahydropyrido[4,3-d]pyrimidin-4-yl)-3-methylpiperazin-1-yl)acetamide], the IC50 stood at 31 nM. For the compound `COCCN(C)c1cc(-c2c(C)cccc2C)nc2c1C(=O)N(c1cc(C(C)C)ccc1C)CC2` [Example 50-E, 2-(2,6-dimethylphenyl)-6-(5-isopropyl-2-methylphenyl)-4-((2-methoxyethyl)(methyl)amino)-7,8-dihydro-1,6-naphthyridin-5(6H)-one], the IC50 worked out at 790 nM.

`Cc1c[nH]c2cccc(-c3nc4c(c(N5CCN(CC(N)=O)[C@H](C)C5)n3)CN(c3ccc(F)cc3F)CC4)c12` [Example 24-I, (R)-2-(4-(6-(2,4-difluorophenyl)-2-(3-methyl-1H-indol-4-yl)-5,6,7,8-tetrahydropyrido[4,3-d]pyrimidin-4-yl)-2-methylpiperazin-1-yl)acetamide]: the 50% inhibitory concentration (IC50) was found to be 464 nM.

Turning to `CO[C@H]1C[C@H]2CC[C@@H](C1)N2c1nc(-c2c(C)cccc2C)nc2c1CN(c1cc(C3(C)COC3)ccc1C)CC2` [Example 21-X, 2-(2,6-dimethylphenyl)-4-((3-endo)-3-methoxy-8-azabicyclo[3.2.1]octan-8-yl)-6-(2-methyl-5-(3-methyloxetan-3-yl)phenyl)-5,6,7,8-tetrahydropyrido[4,3-d]pyrimidine], the IC50 came out at 308 nM. Turning to `Cc1cc(-c2c(C)ccc3[nH]ncc23)nc2c1CN(c1cc(C3CC3)nn1C)CC2` [Example 40-Q, 6-(3-cyclopropyl-1-methyl-1H-pyrazol-5-yl)-4-methyl-2-(5-methyl-1H-indazol-4-yl)-5,6,7,8-tetrahydro-1,6-naphthyridine], the IC50 was found to be 868 nM. With `CCO[C@@H]1CCN(c2nc(-c3c(C)ccc4[nH]nc(C)c34)nc3c2CN(c2c(Cl)c(C4CC4)nn2C)CC3)[C@H](C)C1` [Example 55-J, 6-(4-chloro-3-cyclopropyl-1-methyl-1H-pyrazol-5-yl)-2-(3,5-dimethyl-1H-indazol-4-yl)-4-((2R,4R)-4-ethoxy-2-methylpiperidin-1-yl)-5,6,7,8-tetrahydropyrido[4,3-d]pyrimidine], the 50% inhibitory concentration (IC50) stood at 5 nM.
